We go through 25 compounds from patent US9562033B2, “Inhibitors of viral replication, their process of preparation and their therapeutical uses” (LABORATOIRE BIODIM, priority 2012, dated 2017).

The assay deals with NL4-3 strain of HIV-1. Description: HIV-1 replication inhibition: cyto-protection of MT4 cells infected with NL4-3 virus (CellTiter-Glo viability assay). It counts as cell-based. The conditions noted are these: Human immunodeficiency virus 1, NL43, 120 h, concentration leading to 50% of cyto-protection, 5 days incubation. The procedure:
The antiviral activity, particularly against HIV, of compounds according to the invention is evaluated by the protocol described below.
Preparation of Virus Stock of the NL4-3 Strain of HIV-1
The virus was prepared as described in Lopez et al (Lopez et al, Proc Natl Acad Sci USA., 2006, 103(40):14947-52, by transfecting 2×10^6 293 T cells (CRL-1573, ATCC) with following modifications: 6 μg of NL4-3 proviral DNA molecular clone were mixed with Fugene 6 transfection reagent from Roche, and used according to manufacturer's instructions. Forty eight hours later, transfected cell supernatants were harvested, filtered through 0.45-μm-pore-size filters, quantified for HIV-1 p24 antigen by using a Innotest HIV antigen mAb assay (Ingen) according to manufacturer's instructions, and used in infection experiments.
Preparation of Compounds:
Serial dilutions of compounds to be tested were prepared in complete RPMI medium from 10 mM DMSO stock solutions, and distributed in a volume of 20 µl in 96 well Falcon 353072 Microtest™ tissue culture plate, in order to get 0.5% DMSO final concentration in each well, after the addition of infected cells. Control wells contained also 0.5% DMSO final concentration but no compound.
MT4 cells (from the NIH AIDS Research and Reference Reagent Program) in RPMI complete medium were counted (10×10^6 cells per well in Falcon 353047 Multiwell™ 24 well) and infected for 2 hours at 37°, at a multiplicity of infection (moi) of 0.0001-0.00001. Cells were then centrifuged 3 min at 3000 rpm, and washed two times in 1 ml PBS to remove viruses that have not entered in cells. Infected cells were resuspended in complete RPMI at 1.25×10^6 cells/ml, and 80 µl of infected cells were distributed in each well containing compounds to be tested or control wells. The plates were then incubated at 37° for 5 days.
Assay Used to Measure the Inhibition of HIV Replication by the Compounds
(according to Gregg S. Jones et al., Antimicrobial Agents and Chemotherapy, 2009, 53 (3): 1194-1203).
After 5 days of incubation, […] of CellTiter-Glo reagent (Promega Biosciences, Inc., Madison Wis., USA) were added to each well. Cell lysis was carried out at room temperature during 10 min, 150 μl of lysates were transferred in Packard Optiplate 96 well, and luminescence was read on a Fluoroskan (Thermo Scientific).
On the technique in general: Cellular ATP, detected with luciferase, serves as a proxy for viable cell number.

As usually defined, the EC50 is the concentration at which the effect is half-maximal. Turning to `Cc1sc(-c2nccs2)c(C2=CCC(C)(C)CC2)c1C(OC(C)(C)C)C(=O)O` (stereo not shown) [Example 45, 2-(tert-butoxy)-2-[4-(4,4-dimethylcyclohex-1-en-1-yl)-2-methyl-5-(1,3-thiazol-2-yl)thiophen-3-yl]acetic acid], the EC50 came to 0.44 µM.
In turn, `Cc1sc(-c2cccs2)c(-c2ccc3c(c2)CCCO3)c1C(OC(C)(C)C)C(=O)O` (stereo not shown) [Example 23, 2-(tert-butoxy)-2-[4-(3,4-dihydro-2H-1-benzopyran-6-yl)-2-methyl-5-(thiophen-2-yl)thiophen-3-yl]acetic acid] yielded an EC50 of 0.17 µM.
With `Cc1sc(-n2cccn2)c(-c2ccc3c(c2)CCCO3)c1C(OC(C)(C)C)C(=O)O` (stereo not shown) [Example 85, 2-(tert-butoxy)-2-[4-(3,4-dihydro-2H-1-benzopyran-6-yl)-2-methyl-5-(1H-pyrazol-1-yl)thiophen-3-yl]acetic acid] the figure was 1.9 µM; with `Cc1sc(-c2ccncc2)c(C2=CCC3(CC2)CC3)c1C(OC(C)(C)C)C(=O)O` (stereo not shown) [Example 12, 2-(tert-butoxy)-2-[2-methyl-5-(pyridin-4-yl)-4-{spiro[2,5]oct-5-en-6-yl}thiophen-3-yl]acetic acid], 0.13 µM; with `Cc1sc(-c2ccc(C(N)=O)cc2)c(-c2ccc3c(c2)CCCO3)c1C(OC(C)(C)C)C(=O)O` (stereo not shown) [Example 22, 2-(tert-butoxy)-2-[5-(4-carbamoylphenyl)-4-(3,4-dihydro-2H-1-benzopyran-6-yl)-2-methylthiophen-3-yl]acetic acid], 0.3 µM.
In the case of `Cc1sc(-c2ccccn2)c(C2=CCC(C)(C)CC2)c1C(OC(C)(C)C)C(=O)O` (stereo not shown) [Example 43, 2-(tert-butoxy)-2-[4-(4,4-dimethylcyclohex-1-en-1-yl)-2-methyl-5-(pyridin-2-yl)thiophen-3-yl]acetic acid] it was 0.44 µM; in that of `Cc1sc(-c2cnc3c(c2)CCCO3)c(C2=CCC(C)(C)CC2)c1C(OC(C)(C)C)C(=O)O` (stereo not shown) [Example 7], 0.081 µM; in that of `Cc1sc(-c2ncccn2)c(C2=CCC(C)(C)CC2)c1C(OC(C)(C)C)C(=O)O` (stereo not shown) [Example 49, 2-(tert-butoxy)-2-{2-methyl-4-[4,4-dimethylcyclohex-1-en-1-yl]-5-(Pyrimidin-2-yl)thiophen-3-yl}acetic acid], 0.99 µM.
With `Cc1sc(-c2ccc(=O)n(C)c2)c(C2=CCC(C)(C)CC2)c1C(OC(C)(C)C)C(=O)O` (stereo not shown) [Example 30] the figure was 0.07 µM; with `Cc1cc(-c2sc(C)c(C(OC(C)(C)C)C(=O)O)c2-c2ccc3c(c2)CCCO3)ccn1` (stereo not shown) [Example 14, 2-(tert-butoxy)-2-[4-(3,4-dihydro-2H-1-benzopyran-6-yl)-2-methyl-5-(2-methylpyridin-4-yl)thiophen-3-yl]acetic acid], 0.48 µM.
As to `Cc1sc(-c2ccncc2)c(-c2cc(F)c3c(c2)CCCO3)c1C(OC(C)(C)C)C(=O)O` (stereo not shown) [Example 40, 2-(tert-butoxy)-2-[4-(8-fluoro-3,4-dihydro-2H-1-benzopyran-6-yl)-2-methyl-5-(pyridin-4-yl)thiophen-3-yl]acetic acid], the response was half-maximal at 0.36 µM (EC50).
Compound `Cc1sc(C2=CCCC2)c(C2=CCC(C)(C)CC2)c1C(OC(C)(C)C)C(=O)O` (stereo not shown) [Example 59, 2-(tert-butoxy)-2-[4-(4,4-dimethylcyclohex-1-en-1-yl)-5-(cyclopenten-1-yl)-2-methylthiophen-3-yl]acetic acid] registered a 50% effective concentration (EC50) of 0.67 µM. This EC50 is about 1.9-fold higher than that of the compound before.
In the case of `Cc1sc(-c2cccc(C(N)=O)c2)c(C2=CCC(C)(C)CC2)c1C(OC(C)(C)C)C(=O)O` (stereo not shown) [Example 31, 2-(tert-butoxy)-2-[4-(4,4-dimethylcyclohex-1-en-1-yl)-2-methyl-5-(aminocarbonylphen-3-yl)thiophen-3-yl]acetic acid] it was 0.04 µM; in that of `Cc1sc(N2CCCC2=O)c(C2=CCC(C)(C)CC2)c1C(OC(C)(C)C)C(=O)O` (stereo not shown) [Example 68, 2-(tert-butoxy)-2-{2-methyl-4-[4,4-dimethylcyclohex-1-en-1-yl]-5-(N-pyrrolidinone)thiophen-3-yl}acetic acid], 1.9 µM; in that of `Cc1sc(C2CC2)c(C2=CCC(C)(C)CC2)c1C(OC(C)(C)C)C(=O)O` (stereo not shown) [Example 66, 2-(tert-butoxy)-2-{2-methyl-4-[4,4-dimethylcyclohex-1-en-1-yl]-5-(cyclopropyl)thiophen-3-yl}acetic acid], 1.1 µM.
With `Cc1sc(-c2ccns2)c(C2=CCC(C)(C)CC2)c1C(OC(C)(C)C)C(=O)O` (stereo not shown) [Example 63, 2-(tert-butoxy)-2-{2-methyl-4-[4,4-dimethylcyclohex-1-en-1-yl]-5-(isothiazol-5-yl)thiophen-3-yl}acetic acid] the figure was 0.95 µM; with `Cc1sc(-c2cnn(C)c2)c(C2=CCC(C)(C)CC2)c1C(OC(C)(C)C)C(=O)O` (stereo not shown) [Example 24, 2-(tert-butoxy)-2-[4-(4,4-dimethylcyclohex-1-en-1-yl)-2-methyl-5-(N-methylpyrazol-4-yl)thiophen-3-yl]acetic acid], 0.31 µM; with `Cc1sc(-c2ccsn2)c(-c2ccc3c(c2)CCCO3)c1C(OC(C)(C)C)C(=O)O` (stereo not shown) [Example 86, 2-(tert-butoxy)-2-[4-(3,4-dihydro-2H-1-benzopyran-6-yl)-2-methyl-5-(1,2-thiazol-3-yl)thiophen-3-yl]acetic acid], 0.27 µM.
With `CNC(=O)c1ccccc1-c1sc(C)c(C(OC(C)(C)C)C(=O)O)c1C1=CCC(C)(C)CC1` (stereo not shown) [Example 56, 2-(tert-butoxy)-2-{2-methyl-4-[4,4-dimethylcyclohex-1-en-1-yl]-5-(N-methylbenzamide-2-yl)thiophen-3-yl}acetic acid] the figure was 0.12 µM.
As for `Cc1sc(-c2cccn2C)c(-c2ccc3c(c2)CCCO3)c1C(OC(C)(C)C)C(=O)O` (stereo not shown) [Example 81, 2-(tert-butoxy)-2-[4-(3,4-dihydro-2H-1-benzopyran-6-yl)-2-methyl-5-(1-methyl-1H-pyrrol-2-yl)thiophen-3-yl]acetic acid], the EC50 turned out to be 2.5 µM.
With `Cc1sc(-c2ccncc2)c(C2=CCC(CF)(CF)CC2)c1C(OC(C)(C)C)C(=O)O` (stereo not shown) [Example 48, [4-(4,4-bis-fluoromethyl-cyclohex-1-enyl)-2-methyl-5-pyridin-4-yl-thiophen-3-yl]-tert-butoxy-acetic acid] the figure was 0.13 µM.
With `Cc1sc(-c2ccc(=O)n(CC3CC3)c2)c(C2=CCC(C)(C)CC2)c1C(OC(C)(C)C)C(=O)O` (stereo not shown) [Example 37] the figure was 0.32 µM; with `CCCc1cccc(-c2sc(C)c(C(OC(C)(C)C)C(=O)O)c2C2=CCC(C)(C)CC2)n1` (stereo not shown) [Example 51, 2-(tert-butoxy)-2-{2-methyl-4-[4,4-dimethylcyclohex-1-en-1-yl]-5-(6-(n-propyl)pyridin-2-yl)thiophen-3-yl}acetic acid], 0.27 µM; with `Cc1cccnc1-c1sc(C)c(C(OC(C)(C)C)C(=O)O)c1C1=CCC(C)(C)CC1` (stereo not shown) [Example 47, 2-(tert-butoxy)-2-[4-(4,4-dimethylcyclohex-1-en-1-yl)-2-methyl-5-(3-methylpyridin-2-yl)thiophen-3-yl]acetic acid], 0.51 µM.
In the case of `Cc1sc(-c2ccnc3ccccc23)c(-c2ccc3c(c2)CCCO3)c1C(OC(C)(C)C)C(=O)O` (stereo not shown) [Example 15, 2-(tert-butoxy)-2-[4-(3,4-dihydro-2H-1-benzopyran-6-yl)-2-methyl-5-(quinolin-4-yl)thiophen-3-yl]acetic acid] it was 0.41 µM.
